Where a chain is given by its changes, count along the chain named.
What was measured:
[1] = target: T1, Comamonas testosteroni 3α-HSDH dual mutant [P185A/T188A], N-terminal hexahistidine tag (Comamonas testosteroni, UniProt P80702, P185A/T188A); test: Kinetics of 3α-HSDH [P185A/T188A], N-terminal His tag
T1 sequence (P80702 1-257 P185A/T188A): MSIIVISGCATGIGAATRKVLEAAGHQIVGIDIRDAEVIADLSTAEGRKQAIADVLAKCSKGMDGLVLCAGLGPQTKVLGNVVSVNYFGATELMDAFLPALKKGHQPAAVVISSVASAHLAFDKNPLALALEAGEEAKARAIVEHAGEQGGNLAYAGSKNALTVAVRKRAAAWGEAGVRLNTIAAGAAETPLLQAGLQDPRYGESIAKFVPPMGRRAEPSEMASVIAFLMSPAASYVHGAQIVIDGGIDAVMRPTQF
Protocol: (§1) The activity of the 3α-HSDH and of the mutants was determined using a photometric assay, where the decrease in absorbance was measured at 340 nm over a period of 30 seconds.

[2] = target: T2, Comamonas testosteroni 3α-HSDH dual mutant [L68A/T188A], N-terminal hexahistidine tag (Comamonas testosteroni, UniProt P80702, L68A/T188A)
T2 sequence (P80702 1-257 L68A/T188A): T1 sequence (P80702 1-257 P185A/T188A) with L68A, A185P
Protocol: as §1

[3] = target: T3, Comamonas testosteroni 3α-HSDH dual mutant [L68A/T188S], N-terminal hexahistidine tag (Comamonas testosteroni, UniProt P80702, L68A/T188S)
T3 sequence (P80702 1-257 L68A/T188S): T1 sequence (P80702 1-257 P185A/T188A) with L68A, A185P, A188S
Protocol: as §1

[4] = target: T4, Comamonas testosteroni 3α-HSDH mutant [T188A], N-terminal hexahistidine tag (Comamonas testosteroni, UniProt P80702, T188A); test: Kinetics of 3α-HSDH [T188A], N-terminal His tag
T4 sequence (P80702 1-257 T188A): T1 sequence (P80702 1-257 P185A/T188A) with A185P
Protocol: as §1

[5] = target: T5, Comamonas testosteroni 3α-HSDH mutant [T188S], N-terminal hexahistidine tag (Comamonas testosteroni, UniProt P80702, T188S); test: Kinetics of 3α-HSDH [T188S], N-terminal His tag
T5 sequence (P80702 1-257 T188S): T1 sequence (P80702 1-257 P185A/T188A) with A185P, A188S
Protocol: as §1

[6] = target: T6, Comamonas testosteroni 3α-HSDH, wild type, C-terminal 9×His tag (SEQ ID NO: 51) (Comamonas testosteroni, UniProt P80702); test: Michaelis-Menten kinetics of 3α-HSDH with 9×His tag
T6 sequence (P80702 with tags, fused parts or gaps): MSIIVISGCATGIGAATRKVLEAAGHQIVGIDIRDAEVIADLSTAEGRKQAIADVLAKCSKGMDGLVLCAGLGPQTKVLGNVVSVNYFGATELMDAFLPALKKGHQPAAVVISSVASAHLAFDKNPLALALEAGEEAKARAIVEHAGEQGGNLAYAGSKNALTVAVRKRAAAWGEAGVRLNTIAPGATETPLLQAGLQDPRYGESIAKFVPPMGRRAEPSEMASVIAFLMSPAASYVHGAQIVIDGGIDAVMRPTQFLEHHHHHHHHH
Description: The His-tag allows for very simple purification of the HSDH protein since this sequence is bound with high specificity by specific chromatographic material (NTA (Ni-nitrilotriacetate)-modified support material, loaded with divalent nickel ions, for example “His Pur Ni-NTA” (Nimagen B. V., Nijmegen, The Netherlands)). To this end, the cell-free crude extract is applied to a dropping column comprising this material, which dropping column has previously been equilibrated with the disruption buffer (3 to 5 column volumes). Weakly binding protein was removed by washing with 3 to 5 column volumes of wash buffer (20 mM imidazole, 50 mM sodium phosphate, 300 mM NaCl, pH 8). […] The process was carried out at room temperature. The imidazole which was present was to be removed by buffer exchange.
as §1
Following expression (25° C., 0.5 mM, IPTG, 20 hours), the protein was purified, and the expression and the purification were checked by means of an SDS gel. […] The NADH concentration was 0.2 mM. Purified protein was employed in the measurements.

[7] = Table 14, substrate DHCA, tag N, apparent values
[8] = His tag length 9, DHCA 10 μM-10 mM, NADH 0.2 mM, purified

Compound C[C@H](CCC(=O)O)[C@H]1CC[C@H]2[C@@H]3C(=O)C[C@@H]4CC(=O)CC[C@]4(C)[C@H]3CC(=O)[C@]12C [DHCA, dehydrocholic acid] has a kcat [1, 7] of 17.6 s⁻¹, a vmax [1, 7] of 36.9 ± 2.6 U/mg and a remaining activity at 10000 µM ([1]; read-out: residual activity) of roughly 30%. The kcat [2, 7] was 111.1 s⁻¹, the vmax [2, 7] was 233.5 ± 12.5 U/mg and the remaining activity at 1000 µM ([2]; read-out: residual activity) was 85%. It also gave a remaining activity at 10000 µM ([2]; read-out: residual activity) greater than 20%, a kcat [3, 7] of 91.8 s⁻¹ and a vmax [3, 7] of 193.2 ± 11.4 U/mg. For the same compound, the remaining activity at 10000 µM ([3]; read-out: residual activity) was roughly 20%, the kcat [4, 7] was 130.3 s⁻¹ and the vmax [4, 7] was 274.0 ± 11.6 U/mg. For the same compound, the remaining activity at 20000 µM ([4]; read-out: residual activity) was roughly 20%, the kcat [5, 7] was 158.2 s⁻¹ and the vmax [5, 7] was 332.5 ± 59.9 U/mg. The remaining activity at 20000 µM ([5]; read-out: residual activity) was greater than 20%, the “KM value better than the variant with 3 histidines” value ([6]; DHCA, 9 vs 3 histidines) was 14 fold and the kcat [6, 8] was 8.9 ± 0.5 s⁻¹. For the same compound, the vmax [6, 8] was 19.2 ± 1.1 U/mg.

Reference: patent US10487348B2, “3-alpha-hydroxysteroid dehydrogenase mutants and process for the preparation of ursodeoxycholic acid” (Pharmazell GmbH, priority 2014, dated 2019)
